pKd: −log10 of the molar value. Several values for one entry are separate records, joined by “and”; a condition that tells them apart may be missing. Equal values may be shown once. Read-outs that look alike come from different tables or passages of the source. One block for each compound: values may come before it.
Experiments:
[1] = biological target: T1, FFA1-Nluc (Homo sapiens, UniProt O14842); assay: Bystander BRET internalisation assay, FFA1-Nluc in HEK293T cells; format: cell-based; design: expressed in transfected cells; host or cells: HEK293T (ATCC, CRL-3216), transient; settings: in words; up to 60 min
T1 sequence (O14842 whole entry): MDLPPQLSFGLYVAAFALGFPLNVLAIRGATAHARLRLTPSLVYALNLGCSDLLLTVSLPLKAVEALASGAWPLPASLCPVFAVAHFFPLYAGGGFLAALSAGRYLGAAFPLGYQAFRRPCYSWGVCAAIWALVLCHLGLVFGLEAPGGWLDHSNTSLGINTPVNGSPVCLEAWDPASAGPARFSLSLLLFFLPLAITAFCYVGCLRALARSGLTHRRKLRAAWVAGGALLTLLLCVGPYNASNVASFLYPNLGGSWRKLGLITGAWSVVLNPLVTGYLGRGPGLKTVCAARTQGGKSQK
Experimental: Cells were transfected using a reverse transfection protocol while plating into a poly-D-lysine coated white 96-well plates. Cells were plated at 60,000 cells with 100 ng of plasmid DNA and 0.6 µg of polyethyleneimine (PEI) per well. Cells were cultured for 24 h before washing with HBSS and incubating in HBSS at 37 °C for 30 min. NanoGlo substrate was added a final 1:800 dilution and plates incubated for 10 min at 37 °C. […] After 5 min of baseline measurements, readings were paused and test compounds added to the plate.

[2] = biological target: T2, Nluc-FFA1 (Homo sapiens, UniProt O14842); assay: NanoBRET binding (saturation, competition, kinetics) at N terminal Nluc tagged FFA1; settings: for kOff Nano-BRET: TUG-2591 100 nM then TUG-905 10 μM, or TUG-2597 […] then T360 10 μM; for kOff Nano-BRET Multiple Concentration / kOn Nano-BRET Multiple Concentration: multiple concentration of labelled ligand association model; for kOff Nano-BRET Allosterism, Nluc-FFA1: TUG-2591 (1 μM) in the presence of T360 (30μM), TUG-2597 (1 μM) in the presence of TUG-905 (30μM), 95% CI in parentheses; for Kd: footnotes of Supplementary Table 3, read-out: Kd values obtained in NanoBRET saturation experiments (used for pKi) (converted)
T2 construct: expressed in transfected cells
T2 sequence (O14842 whole entry): as above

[3] = biological target: T1, FFA1-Nluc; assay: DISCo-BRET (endpoint, spectra scan, kinetics) with TUG-2591 and TUG-2597 at C terminal Nluc tagged FFA1; format: binding; design: expressed in transfected cells; settings: for Specific BRET (690/450): Sup Fig 3Bi
In short: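 After Nano-Glo substrate (1:800 final), ligand-treated FFA1-Nluc or Nluc-FFA1 cells, doxycycline-induced (100 ng/mL), were read. Kinetic association/dissociation runs were at 25 °C; endpoint and 440–740 nm spectra came after 5 min at 37 °C. Non-specific signal came from competing ligands at high concentration.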

[4] = Nluc-FFA1, 95% confidence interval in parentheses, read-out: Kd, saturation BRET binding
[5] = Nluc-FFA1, association then dissociation model
[6] = Nluc-FFA1, association then dissociation model, read-out: Kd Nano-BRET (kinetic)
[7] = Nluc-FFA1, read-out: Kd Nano-BRET Multiple Concentration (kinetic)
[8] = TUG-2597 […] first, then increasing TUG-2591 (Fig. 6H)
[9] = TUG-2591 100 nM + TUG-2597 […], displacing ligand T360 10 μM
[10] = TUG-2597 […] after TUG-2591 pre-treatment (Sup. Fig. 10A)
[11] = based on the value calculated in Supplementary Table 4
[12] = tracers 1.0 μΜ / 3.16 μΜ, displacing ligand T360 (30 μM)

internalization of FFA1-Nluc [1]: No internalization
pKd [2, 4]: 6.68
kOn Nano-BRET [2, 5]: 26666.67 M⁻¹ s⁻¹
kOff Nano-BRET [2, 5]: 0.00683 s⁻¹
pKd [2, 6]: 6.60
kOff Nano-BRET Multiple Concentration ([2]; Nluc-FFA1): 0.0207 s⁻¹
kOn Nano-BRET Multiple Concentration ([2]; Nluc-FFA1): 125000 M⁻¹ s⁻¹
pKd [2, 7]: 6.77
BMax, saturation BRET binding ([2]; Nluc-FFA1, specific BRET, 95% confidence interval in parentheses): 0.31 (0.27-0.37)
kOff Nano-BRET Allosterism, Nluc-FFA1 [2]: 0.034 (0.032-0.035) min-1
Kd [2]: 200 nM
off-rate, times faster in single ligand NanoBRET compared with dual ligand DISCo-BRET ([2]; ratio of off-rates): ~ 10
pKd ([3]; FFA1-Nluc, […] TUG-2597, read-out: Kd, DISCo-BRET saturation SulfoCy5/NBD (Sup Fig 3Biii)): 7.19
pKd ([3]; FFA1-Nluc, […] TUG-2597, read-out: Kd, DISCo-BRET saturation SulfoCy5/NBD (Sup Fig 3Ciii)): 6.85
pKd ([3]; FFA1-Nluc, […] TUG-2597, read-out: Kd, DISCo-BRET saturation SulfoCy5/Nluc (Sup Fig 3Bi)): 7.24
pKd ([3]; FFA1-Nluc, […] TUG-2597, read-out: Kd, DISCo-BRET saturation SulfoCy5/Nluc (Sup Fig 3Ci)): 7.09
kOff DISCo-BRET SulfoCy5/NBD ([3]; TUG-2591 100 nM + TUG-2597 […], displacing ligand TUG-905 10 μM): 0.0006 s⁻¹
kOn DISCo-BRET Single Concentration ([3]; TUG-2591 100 nM added after TUG-2597 […]): 20000 M⁻¹ s⁻¹
pKd ([3]; TUG-2591 added after TUG-2597, read-out: Kd DISCo-BRET Single Concentration (kinetic)): 7.04
kOff DISCo-BRET Multiple Concentration [3, 8]: 0.00183 s⁻¹
kOn DISCo-BRET Multiple Concentration [3, 8]: 8333.33 M⁻¹ s⁻¹
pKd ([3]; TUG-2597 […] first, then increasing TUG-2591 (Fig. 6H), read-out: Kd DISCo-BRET Multiple Concentration (kinetic)): 6.66
kOff DISCo-BRET Single Concentration ([3]; based on the value calculated in the multiple ligand experiment in Fig. 6H): 0.00183 s⁻¹
pKd ([3]; in presence of […] TUG-2597, either construct, read-out: Kd, DISCo-BRET saturation (area under SulfoCy5 / NBD peaks)): 7.00 to 7.30
kOff DISCo-BRET SulfoCy5/NBD ([3]; tracers 1.0 μΜ / 3.16 μΜ, displacing ligand TUG-905 (30 μΜ)): 0.000533 s⁻¹
SMILES: Cc1cc(OCCCNC(=O)CCCN2\C(=C/C=C/C=C/C3=[N+](C)c4ccc(S(=O)(=O)[O-])cc4C3(C)C)C(C)(C)c3ccccc32)ccc1-c1cccc(COc2ccc(CCC(=O)O)c(F)c2)c1 [TUG-2591]
Specific BRET (540/450) ([3]; 10 nM TUG-2591, + TUG-2597): 0.2063 and 0.1967 and 0.1514 and 0.1434 and 0.1849 and 0.1798
Specific BRET (690/450) ([3]; TUG-2591 56 nM, with TUG-2597): 0.0527 and 0.0499 and 0.0741 and 0.0890 and 0.0785 and 0.0761 and 0.0666 and 0.0608
Specific BRET (690/450) ([3]; TUG-2591 100 nM, with TUG-2597): 0.0715 and 0.0673 and 0.0821 and 0.0713 and 0.0718 and 0.0721 and 0.1131 and 0.1106
Specific BRET (540/450) ([3]; Sup Fig 3Bii, TUG-2591 10 nM, with TUG-2597 + TUG-905): 0.2427 and 0.2316 and 0.2211 and 0.2363 and 0.1842 and 0.1961
Specific BRET (540/450) ([3]; Sup Fig 3Bii, TUG-2591 56 nM, with TUG-2597): 0.1505 and 0.1512 and 0.1284 and 0.1402 and 0.0985 and 0.0926
Specific BRET (540/450) ([3]; Sup Fig 3Bii, TUG-2591 56 nM, with TUG-2597 + TUG-905): 0.1690 and 0.2045 and 0.2352 and 0.2122 and 0.1905 and 0.1776
Specific BRET (540/450) ([3]; Sup Fig 3Bii, TUG-2591 100 nM, with TUG-2597): 0.1528 and 0.1591 and 0.1221 and 0.0973 and 0.0962 and 0.0870
Specific BRET (540/450) ([3]; Sup Fig 3Bii, TUG-2591 100 nM, with TUG-2597 + TUG-905): 0.1931 and 0.1764 and 0.2349 and 0.2150 and 0.1675 and 0.1714
Specific BRET (690/540) ([3]; Sup Fig 3Biii, TUG-2591 56 nM, with TUG-2597): 0.0349 and 0.0333 and 0.0476 and 0.0572 and 0.0548 and 0.0534 and 0.0437 and 0.0392
Specific BRET (690/540) ([3]; Sup Fig 3Biii, TUG-2591 100 nM, with TUG-2597): 0.0480 and 0.0458 and 0.0524 and 0.0450 and 0.0542 and 0.0749 and 0.0751
Specific BRET (690/540) ([3]; [TUG-2591] 100 nM, with TUG-2597): 0.0559 and 0.0537 and 0.05545 and 0.05225 and 0.03465 and 0.04165

internalization of FFA1-Nluc [1]: No internalization
pKd [2, 4]: 6.41
Specific BRET (540/450) Ratio ([2]; Nluc-FFA1, [TUG-2597] 550 nM): 0.0530 and 0.0471 and 0.0466
kOn Nano-BRET [2, 5]: 58333.33 M⁻¹ s⁻¹
kOff Nano-BRET [2, 5]: 0.00633 s⁻¹
pKd [2, 6]: 6.96
kOff Nano-BRET Multiple Concentration ([2]; Nluc-FFA1): 0.0065 s⁻¹
kOn Nano-BRET Multiple Concentration ([2]; Nluc-FFA1): 12000 M⁻¹ s⁻¹
pKd [2, 7]: 6.27
kOff Nano-BRET Allosterism, Nluc-FFA1 [2]: 0.20 (0.195-0.203) min-1
Kd [2]: 380 nM
pKd ([2]; using either Nluc location (N or C terminal), read-out: Kd, saturation NanoBRET): 6.36 to 6.46
kOff DISCo-BRET NBD/Nluc [3, 9]: 0.004 s⁻¹
kOff DISCo-BRET SulfoCy5/NBD [3, 9]: 0.0045 s⁻¹
kOff DISCo-BRET NBD/Nluc ([3]; TUG-2591 100 nM + TUG-2597 […], displacing ligands TUG-905 and T360 10 μM each): 0.00367 s⁻¹
kOn DISCo-BRET NBD/Nluc [3, 10]: 31666.67 M⁻¹ s⁻¹
kOn DISCo-BRET SulfoCy5/NBD [3, 10]: 28333.33 M⁻¹ s⁻¹
pKd ([3]; TUG-2597 after TUG-2591 pre-treatment, read-out: Kd DISCo-BRET NBD/Nluc (kinetic)): 6.89
pKd ([3]; TUG-2597 after TUG-2591 pre-treatment, read-out: Kd DISCo-BRET SulfoCy5/NBD (kinetic)): 6.85
kOff DISCo-BRET NBD/Nluc [3, 11]: 0.004 s⁻¹
kOff DISCo-BRET SulfoCy5/NBD [3, 11]: 0.004 s⁻¹
off rate from DISCo-BRET binding studies ([3]; range depending on which tracer concentration was used (author rebuttal)): 0.18-0.27
kOff DISCo-BRET NBD/Nluc [3, 12]: 0.004 s⁻¹
kOff DISCo-BRET SulfoCy5/NBD [3, 12]: 0.003 s⁻¹
kOff DISCo-BRET NBD/Nluc ([3]; tracers 1.0 μΜ / 3.16 μΜ, displacing ligands TUG-905 and T360 (30 μM each)): 0.00667 s⁻¹
SMILES: COc1ccc(C(=O)N(CC(C)(C)CNc2ccc([N+](=O)[O-])c3nonc23)c2cccc(C)n2)c(N2CCC(COc3cccc(C(CC(=O)O)C4CC4)c3)CC2)c1.O=C(O)C(F)(F)F (stereo not drawn) [TUG-2597]
Specific BRET ([2]; Nluc-FFA1 (Fig 1F), percentage of the maximal signal, [TUG-2597] 550 nM): 73.921% and 62.249% and 55.324% and 54.737% and 83.741% and 100.190%
Specific BRET (540/450) Ratio ([2]; Nluc-FFA1, [TUG-2597] 100 nM): 0.0112 and 0.0100 and 0.0162 and 0.0091 and 0.0128 and 0.0161
Specific BRET (540/450) Ratio ([2]; Nluc-FFA1, [TUG-2597] 1000 nM): 0.0547 and 0.0609 and 0.0560 and 0.0683 and 0.0664 and 0.0577
Specific BRET (540/450) ([3]; Sup Fig 3Bii, TUG-2591 0 nM, TUG-2597 + TUG-905): 0.2651 and 0.2434 and 0.2485 and 0.2471 and 0.2191 and 0.2108
Specific BRET (540/450) ([3]; Sup Fig 3Bii, TUG-2591 0 nM, TUG-2597 alone): 0.1932 and 0.1879 and 0.1690 and 0.1361 and 0.1137 and 0.1169

From PMC12254266, “Multicolored sequential resonance energy transfer for detection of simultaneous ligand binding at G protein-coupled receptors” (Nature Communications, 2025)
